Key:
Format in all cases: in vivo
[1] = system: Italian ryegrass (Lolium multiflorum); assay: Test B pre-/postemergence plant response
Text: (§1) Seeds of plant species selected from bamyardgrass (Echinochloa crus-galli), kochia (Kochia scoparia), ragweed (common ragweed, Ambrosia elatior), Italian ryegrass (Lolium multiflorum), large (Lg) crabgrass (Digitaria sanguinalis), giant foxtail (Setaria faberii), momingglory (Ipomoea spp.), pigweed (Amaranthus retroflexus), velvetleaf (Abutilon theophrasti), wheat (Triticum aestivum), and corn (Zea mays) were planted into a blend of loam soil and sand and treated preemergence with a directed soil spray using test chemicals formulated in a non-phytotoxic solvent mixture which included a surfactant. At the same time, plants selected from these crop and weed species and also blackgrass (Alopecurus myosuroides), and galium (catchweed bedstraw, Galium aparine) were planted in pots containing the same blend of loam soil and sand and treated with postemergence applications of test chemicals formulated in the same manner. Plants ranged in height from 2 to 10 cm and were in the one- to two-leaf stage for the postemergence treatment. Treated plants and untreated controls were maintained in a greenhouse for approximately 10 days, after which time all treated plants were compared to untreated controls and visually evaluated for injury. Plant response ratings, summarized in Table B, are based on a 0 to 100 scale where 0 is no effect and 100 is complete control. A dash (-) response means no test result.

kochia (Kochia scoparia) = assay: Test B pre-/postemergence plant response
Text: as §1

corn (Zea mays) = assay: Test B pre-/postemergence plant response
Text: as §1

[2] = system: ragweed (common ragweed, Ambrosia elatior); assay: Test B pre-/postemergence plant response
Text: as §1

[3] = system: barnyardgrass (Echinochloa crus-galli); assay: Test B pre-/postemergence plant response
Text: as §1

[4] = system: giant foxtail (Setaria faberii); assay: Test B pre-/postemergence plant response
Text: as §1

[5] = system: wheat (Triticum aestivum); assay: Test B pre-/postemergence plant response
Text: as §1

[6] = system: pigweed (Amaranthus retroflexus); assay: Test B pre-/postemergence plant response
Text: as §1

[7] = system: barnyardgrass (Echinochloa crus-galli); assay: Test C flooded paddy test plant response; conditions: Flood, 250 g ai/ha; scale of 0 to 100 where 0 is no effect and 100 is complete control; 13 to 15 days
Procedure, shortened: (§2)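 Flooded-pot format, 3 cm water over soil maintained for the test duration; test compounds dispensed into the water at the 2-leaf stage. Greenhouse holding 13 to 15 days. Plants evaluated visually relative to untreated controls, 0 meaning no effect and 100 complete control.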

[8] = system: ducksalad (Heteranthera limosa); assay: Test C flooded paddy test plant response; conditions: Flood, 250 g ai/ha; scale of 0 to 100 where 0 is no effect and 100 is complete control; 13 to 15 days
Procedure, shortened: as §2

[9] = system: small-flower umbrella sedge (Cyperus difformis); assay: Test C flooded paddy test plant response; conditions: Flood, 250 g ai/ha; scale of 0 to 100 where 0 is no effect and 100 is complete control; 13 to 15 days
Procedure, shortened: as §2

rice (Oryza sativa) = assay: Test C flooded paddy test plant response; conditions: Flood, 250 g ai/ha; scale of 0 to 100 where 0 is no effect and 100 is complete control; 13 to 15 days
Procedure, shortened: as §2

[10] = system: galium (catchweed bedstraw, Galium aparine); assay: Test B postemergence plant response
Procedure, shortened: (§3)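 Injury was assessed visually about 10 days after treatment, scored from 0 (no effect) to 100 (complete control) by comparison with untreated controls. Test chemicals had been applied postemergence to potted plants at the one- to two-leaf stage, grown in loam soil and sand in a greenhouse.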

[11] = system: blackgrass (Alopecurus myosuroides); assay: Test B postemergence plant response
Procedure, shortened: as §3

[12] = 31 g ai/ha, Postemergence, 0 to 100 scale, 0 no effect, 100 complete control
[13] = 31 g ai/ha, Preemergence, 0 to 100 scale where 0 is no effect and 100 is complete control
[14] = 125 g ai/ha, postemergence, 0 to 100 scale, 0 no effect, 100 complete control
[15] = Preemergence, 125 g ai/ha, 0 to 100 scale where 0 is no effect and 100 is complete control
[16] = Postemergence, 500 g ai/ha, 0 to 100 scale (0 no effect, 100 complete control)
[17] = Preemergence, 500 g ai/ha, 0 to 100 scale where 0 is no effect and 100 is complete control

| SMILES | Plant response rating, Ryegrass, Italian [1, 13] | Plant response rating, Ryegrass, Italian [1, 14] | Plant response rating, Kochia (kochia (Kochia scoparia); [13]) | Plant response rating, Kochia (kochia (Kochia scoparia); [14]) | Plant response rating, Kochia (kochia (Kochia scoparia); [15]) | Plant response rating, Corn (corn (Zea mays); [12]) | Plant response rating, Corn (corn (Zea mays); [14]) | Plant response rating, Ragweed [2, 14] | Plant response rating, Barnyardgrass [3, 14] | Plant response rating, Barnyardgrass [3, 15] | Plant response rating, Foxtail, Giant [4, 14] | Plant response rating, Foxtail, Giant [4, 15] | Plant response rating, Wheat [5, 14] | Plant response rating, Pigweed [6, 14] | Barnyardgrass plant response rating [7] | Ducksalad plant response rating [8] | Sedge, Umbrella plant response rating [9] | Rice plant response rating (rice (Oryza sativa)) | Plant response rating, Galium [10, 14] | Plant response rating, Blackgrass [11, 14] | also measured |
| --- | --- | --- | --- | --- | --- | --- | --- | --- | --- | --- | --- | --- | --- | --- | --- | --- | --- | --- | --- | --- | --- |
| Cn1cnc(-c2ccccc2Oc2ncc(Cl)cn2)n1 [Compound 115] | 0 | 0 | 0 | 0 | 0 | 0 | 0 | 0 | 0 | 0 | 0 | 0 | 0 | 0 | 0 | 0 | 0 | 0 | 0 | 0 | Plant response rating, Ryegrass, Italian [1, 12]: 0; Plant response rating, Kochia (kochia (Kochia scoparia); [12]): 0; Plant response rating, Ragweed [2, 12]: 0; Plant response rating, Ragweed [2, 13]: 0; Plant response rating, Barnyardgrass [3, 12]: 0; Plant response rating, Barnyardgrass [3, 13]: 0; Plant response rating, Foxtail, Giant [4, 12]: 0; Plant response rating, Foxtail, Giant [4, 13]: 0; Plant response rating, Wheat [5, 12]: 0; Plant response rating, Pigweed [6, 12]: 0; Plant response rating, Pigweed [6, 13]: 0; Plant response rating, Galium [10, 12]: 0; Plant response rating, Blackgrass [11, 12]: 0 |
| Cn1ncnc1-c1ccccc1Oc1ncc(Cl)cn1 [Compound 117] | 0 | 0 | 0 | 0 | 0 | 0 | 0 | 0 | 0 | 0 | 0 | 0 | 0 | 0 | 0 | 0 | 0 | 0 | 0 | 0 | Plant response rating, Ryegrass, Italian [1, 12]: 0; Plant response rating, Kochia (kochia (Kochia scoparia); [12]): 0; Plant response rating, Ragweed [2, 12]: 0; Plant response rating, Ragweed [2, 13]: 0; Plant response rating, Barnyardgrass [3, 12]: 0; Plant response rating, Barnyardgrass [3, 13]: 0; Plant response rating, Foxtail, Giant [4, 12]: 0; Plant response rating, Foxtail, Giant [4, 13]: 0; Plant response rating, Wheat [5, 12]: 0; Plant response rating, Pigweed [6, 12]: 0; Plant response rating, Pigweed [6, 13]: 0; Plant response rating, Galium [10, 12]: 0; Plant response rating, Blackgrass [11, 12]: 0 |
| Brc1cnc(Oc2ccccc2-c2cc(Br)no2)nc1 [Compound 119] | 0 | 0 | 0 | 30 | 10 | 0 | 0 | 10 | 0 | 0 | 10 | 50 | 0 | 80 | 0 | 40 | 40 | 0 | 60 | 0 | Plant response rating, Ryegrass, Italian [1, 12]: 0; Plant response rating, Kochia (kochia (Kochia scoparia); [12]): 0; Plant response rating, Ragweed [2, 12]: 10; Plant response rating, Ragweed [2, 13]: 0; Plant response rating, Barnyardgrass [3, 12]: 0; Plant response rating, Barnyardgrass [3, 13]: 0; Plant response rating, Foxtail, Giant [4, 12]: 0; Plant response rating, Foxtail, Giant [4, 13]: 0; Plant response rating, Wheat [5, 12]: 0; Plant response rating, Pigweed [6, 12]: 40; Plant response rating, Pigweed [6, 13]: 0; Plant response rating, Galium [10, 12]: 30; Plant response rating, Blackgrass [11, 12]: 0 |
| Clc1cnc(Oc2ccccc2-c2nnc(C3CC3)o2)nc1 [Compound 122] | 0 | 0 | 0 | 20 | 10 | 0 | 0 | 10 | 0 | 0 | 0 | 0 | 20 | 20 | 0 | 0 | 0 | 0 | 20 | 0 | Plant response rating, Ragweed [2, 13]: 0; Plant response rating, Barnyardgrass [3, 12]: 0; Plant response rating, Barnyardgrass [3, 13]: 0; Plant response rating, Foxtail, Giant [4, 12]: 0; Plant response rating, Foxtail, Giant [4, 13]: 0; Plant response rating, Pigweed [6, 13]: 10; Plant response rating, Blackgrass [11, 12]: 0 |
| CC(C)n1ncnc1-c1ccccc1Oc1ncc(Cl)cn1 [Compound 123] |  | 0 |  | 0 | 0 |  | 0 | 0 | 0 | 0 | 0 | 0 | 0 | 0 | 0 | 0 | 30 | 0 | 0 | 0 | Plant response rating, Ryegrass, Italian [1, 16]: 0; Plant response rating, Ryegrass, Italian [1, 17]: 0; Plant response rating, Kochia (kochia (Kochia scoparia); [16]): 0; Plant response rating, Kochia (kochia (Kochia scoparia); [17]): 0; Plant response rating, Corn (corn (Zea mays); [16]): 0; Plant response rating, Ragweed [2, 16]: 0; Plant response rating, Ragweed [2, 17]: 0; Plant response rating, Barnyardgrass [3, 16]: 0; Plant response rating, Barnyardgrass [3, 17]: 0; Plant response rating, Foxtail, Giant [4, 16]: 0; Plant response rating, Foxtail, Giant [4, 17]: 0; Plant response rating, Wheat [5, 16]: 0; Plant response rating, Pigweed [6, 16]: 0; Plant response rating, Pigweed [6, 17]: 0; Plant response rating, Galium [10, 16]: 0; Plant response rating, Blackgrass [11, 16]: 0 |
